{"source": "patent EP4218772A1", "about": "“LITHIUM SALT FOR USE IN TREATMENT OF PULMONARY HYPERTENSION” (Charité - Universitätsmedizin Berlin, priority 2022, dated 2023)", "test_system": "C57BL/6-mice", "procedure": "Animal experiments: • General: 10-12 week old male C57BL/6-mice were kept at normoxia or in a hypoxia chamber at 10% O2 for five weeks and got either regular chow or chow containing 0.2% Li2CO3. • IFT88 knock-out in mice: IFT88-flox mice were bred with Cdh5-cre mice. 2 weeks prior to treatment, IFT88fl/fl, Cdh5-cre+ and Cdh-cre- mice were intraperitoneally injected with tamoxifen (75 mg/kg body weight) to induce knock-out. • Echocardiography: Mice were anesthetized with initially 3% isoflurane. The animals are fixed in dorsal position and their thoracal hair was removed with depilatory cream. Pulmonary artery flow, tricuspid valve movement and other echocardiographic parameters were assessed with the echo device Vevo3100. • RVSP measurement: After five weeks, the mice got an intraperitoneal injection of ketamin (200 mg/kg bodyweight (bw)) and xylazine (10 mg/kg bw). A 2F microtip millar catheter was advanced into the right ventricle via the jugularis vein to measure right ventricle systolic pressure (RVSP).", "data": [{"substance": "lithium carbonate [Li2CO3]", "values": [{"measurement": "right ventricular systolic blood pressure", "setting": "chow containing 0.2% Li2CO3, hypoxia 10% O2 for five weeks", "result": "reduced the increase"}, {"measurement": "development of a PH under chronic hypoxia", "setting": "food with 0.2% Li2CO3, 10% O2 for 5 weeks, Fig. 1D", "result": "prevents the development of a PH"}]}]}
